We go through 15 compounds from PubChem BioAssay (NCI).

Values joined by “and” are separate entries in the source; they are usually repeats but may differ in a detail not shown here. Equal entries are not always repeated.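 Test compounds were applied to cells in 96-well plates for 48 hours at 5 doses. Abbreviation: GI50, concentration required for 50% inhibition of growth. TGI: concentration producing complete growth inhibition.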

What all share (assay): NCI anticancer screen, dose series, 48 h
Assay [1] concerns 786-0 renal.
The test system of assay [2] is HL-60(TB) leukemia.
Assay [3] relates to HOP-92 NSCLC.
The test system of assay [4] is NCI-H460 lung.
Assay [5] deals with NCI/ADR-RES ovarian.
The subject of assay [6] is PC-3 prostate.
The test system of assay [7] is RXF 393 renal.
Assay [8] concerns SF-268 CNS.
Assay [9] deals with SNB-75 CNS.
The test system of assay [10] is UO-31 renal.

For `CC(C)COC(=O)c1ccc2[nH]c(O)c(C=Nc3ccc(S(N)(=O)=O)cc3)c2c1`, the GI50 was 1.21 µM in assay [1]; 0.68 µM in [2]; 1.45 µM in assay [3]; 0.787 µM in [4]; 5.36 µM in assay [5]; 1.6 µM in [6]. For the same compound, the GI50 in [7] is 0.747 µM; in [8] it was 1.22 µM; in [9], 1.77 µM; in assay [10], 2.44 µM. Moreover, the TGI in assay [1] worked out at 4.24 µM; in assay [2] it was 2.38 µM; in assay [3] it was 4.22 µM; in [4], 3.41 µM; in assay [5], 21.2 µM; in assay [6], 6.54 µM. In addition, the TGI was 1.61 µM in assay [7], 4.45 µM in [8], 5.15 µM in assay [9] and 10.2 µM in assay [10].
As for `COc1ccc(Nc2cc(C)nc(N3CCN(c4ccnc5cc(Cl)ccc45)CC3)n2)cc1`, the GI50 in assay [1] was 2.61 µM; in assay [2], 3.12 µM; in assay [3] it was 1.04 µM; in assay [4] it was 1.92 µM; in [5], 2.48 µM; in assay [6], 2.21 µM. Besides, the GI50 in assay [7] is 2.79 µM; in [8], 4.7 µM; in assay [9] it was 2.47 µM; in [10], 2.24 µM. Moreover, the TGI in assay [1] is above 100 µM; in assay [2], 12.8 µM; in [3] it was 5.59 µM; in [4], above 100 µM; in [5], 8.43 µM; in assay [6] it was above 100 µM. Also, the TGI was 21 µM in assay [7], above 100 µM in assay [8], 13.4 µM in assay [9] and above 100 µM in [10].
On to `C/C=C(\C)C(=O)N[C@H]1C(O)C[C@]2(C)C3CC[C@@]4(C)C(CC[C@@H]4C(C)N(C)C)C3CCC2C1O` (stereo not given in full), for which the GI50 in assay [1] was 4.95 µM; in [2], 4.44 µM; in assay [3], 6.44 µM; in assay [4], 2.07 µM; in assay [5], 18.4 µM; in assay [6], 8.72 µM. The GI50 is 7.53 µM in [7], 2.8 µM in assay [8], 10.7 µM in [9] and 2.03 µM in [10]. Moreover, the TGI was 10.6 µM in assay [1]; 16.9 µM in [2]; 33.4 µM in [3]; 4.59 µM in assay [4]; above 75.5 µM in assay [5]; above 52.6 µM in [6]. The TGI came out at 23.2 µM in assay [7], 8.94 µM in assay [8], 26.6 µM in [9] and 5.73 µM in assay [10].
As for `[Cl][Cd][Cl]`, the GI50 was 21 µM and 8.67 µM in assay [1]; 39.4 µM and 18.6 µM in assay [2]; > 80.2 µM and 15.2 µM in [3]; 1.44 µM and 4.53 µM and 1.16 µM in assay [4]; 120 µM in assay [5]; 10.5 µM in assay [6]. Further, the GI50 in assay [7] is 50.1 µM and 13.6 µM; in assay [8], 16.5 µM and 8.95 µM; in assay [9], 22.7 µM and 11.2 µM; in assay [10] it was > 74 µM and 74.5 µM. In addition, the TGI was 44.4 µM and 17.6 µM in assay [1]; > 84.5 µM and 118 µM in [2]; 35.3 µM in [3]; 17.6 µM and 24.9 µM in assay [4]; 277 µM in [5]; 23.6 µM in [6]. In addition, the TGI in assay [7] was 41.2 µM; in assay [8] it was 33.9 µM and 24.4 µM; in assay [9], 45.6 µM and 29.4 µM; in [10], 131 µM.
Regarding `COc1ccc2nc(NC(=O)c3cccnc3Nc3cc(OC)c(OC)c(OC)c3)sc2c1`, the GI50 was 5.6 µM in assay [1]; 32.3 µM in [2]; 2.24 µM in assay [3]; 7.42 µM in assay [4]; 8.97 µM in assay [5]; 6.67 µM in assay [6]. The GI50 in [7] is 2.6 µM; in assay [8], 4.43 µM; in assay [9] it was 2.89 µM; in assay [10], 9.3 µM. The TGI in [1] was 19.7 µM; in [2], above 100 µM; in [3] it was 9.5 µM; in [4], 24 µM; in [5], 25.7 µM; in assay [6] it was 23.2 µM. Further, the TGI in assay [7] came to 8.85 µM; in assay [8] it was 18.9 µM; in assay [9] it was 12.8 µM; in assay [10] it was 27.2 µM.
On to `Cn1cnc([N+](=O)[O-])c1Sc1ncn[nH]1`, for which the GI50 in assay [1] is above 100 µM; in assay [2] it was 75.5 µM; in assay [3] it was 29.2 µM; in assay [4] it was above 100 µM; in assay [5], above 100 µM; in assay [6], above 100 µM. The GI50 in [7] is 29 µM; in [8], above 100 µM; in assay [9], above 100 µM; in assay [10], 35.2 µM. Moreover, the TGI in assay [1], in [2], in assay [3], in assay [4], in [5] and in assay [6] was above 100 µM in each case. The TGI in assay [7], in assay [8], in [9] and in assay [10] was above 100 µM each time.
As to `Cc1cccc2c(N)c3ccccc3nc12`, the GI50 in [1] is 1.54 µM; in [2] it was 2.41 µM; in assay [3] it was 2.18 µM; in assay [4] it was 0.523 µM; in assay [5], 1.32 µM; in assay [6] it was 2.32 µM. Moreover, the GI50 is 1.36 µM in assay [7], 1.5 µM in assay [8], 1.47 µM in assay [9] and 0.595 µM in [10]. Moreover, the TGI turned out to be 7.49 µM in assay [1]; 10.3 µM in [2]; 6.05 µM in assay [3]; 10.5 µM in assay [4]; 12.8 µM in assay [5]; 8.17 µM in assay [6]. In addition, the TGI in [7] was 3.72 µM; in [8], 9.22 µM; in [9] it was 4.14 µM; in assay [10] it was 6.09 µM.
For the compound `CCN(CC)CCOc1ccc(C(=O)/C=C\c2ccc(Cl)cc2Cl)cc1`, the GI50 is 6.44 µM in [1]; 2.67 µM in assay [2]; 3.63 µM in assay [3]; 11.1 µM in assay [4]; 9.91 µM in assay [5]; 4.1 µM in assay [6]. Moreover, the GI50 is 5.13 µM in [7], 8.41 µM in [8], 2.53 µM in [9] and 4.06 µM in assay [10]. For the same compound, the TGI in assay [1] was found to be 20.3 µM; in [2] it was 6.25 µM; in [3] it was 16.3 µM; in assay [4] it was 26.1 µM; in assay [5], 23.3 µM; in [6], 14.5 µM. Besides, the TGI in assay [7] was found to be 18.1 µM; in assay [8], 23.7 µM; in assay [9], 12.1 µM; in [10], 17.2 µM.
Regarding `CN(C)CCN1C(=O)c2cccc3cccc(c23)C1=O`, the GI50 in assay [1] was 24 µM; in assay [2], 6.82 µM; in [3] it was 14.8 µM; in [4] it was 8.26 µM; in assay [5], 19.6 µM; in assay [6], 18.7 µM. Further, the GI50 in [7] was 13.4 µM; in assay [8], 18.9 µM; in assay [9], above 25 µM; in assay [10], 11 µM. Besides, the TGI in assay [1], in assay [2], in assay [3], in assay [4], in assay [5] and in assay [6] was above 25 µM in each case. In addition, the TGI in [7], in assay [8], in assay [9] and in assay [10] was above 25 µM throughout.
As for `O=C1NCCS(=O)(=O)/C1=C\C=C\c1cccc(C(F)(F)F)c1`, the GI50 in assay [1] was 2.64 µM; in assay [2], 2.4 µM; in assay [3], 5.09 µM; in assay [4], 2.73 µM; in assay [5], 2.81 µM; in assay [6], 2.79 µM. The GI50 was 2.52 µM in assay [7], 3.28 µM in [8], 4.36 µM in assay [9] and 1.76 µM in assay [10]. Also, the TGI in assay [1] was 7.67 µM; in assay [2] it was 7.26 µM; in assay [3] it was 16.4 µM; in assay [4] it was 7.68 µM; in assay [5], 14.2 µM; in assay [6] it was 11.4 µM. Besides, the TGI in assay [7] amounted to 5.37 µM; in assay [8] it was 15 µM; in assay [9], 20.1 µM; in [10], 3.79 µM.
As for `Cn1c(=O)c(Oc2ccc(F)cc2F)cc2cnc(NCCS(C)(=O)=O)nc21`, the GI50 in assay [1], in assay [2], in assay [3], in [4], in [5] and in assay [6] was above 25 µM throughout. Moreover, the GI50 in assay [7], in assay [8], in [9] and in assay [10] was above 25 µM each time. The TGI in assay [1], in assay [2], in assay [3], in assay [4], in [5] and in assay [6] was above 25 µM each time. Also, the TGI in [7], in [8], in assay [9] and in assay [10] was above 25 µM in each case.
Take `CCN(CC)CCSCCCNc1c2ccc(Cl)cc2nc2ccc(OC)cc12`: the GI50 in assay [1] is 1.12 µM; in [2], 1.55 µM; in assay [3], 1.64 µM; in assay [4], 0.383 µM; in assay [5] it was 1.15 µM; in assay [6] it was 1.23 µM. The GI50 is 0.925 µM in assay [7], 1.06 µM in [8], 1.28 µM in assay [9] and 1.27 µM in [10]. Also, the TGI in assay [1] turned out to be 2.43 µM; in assay [2] it was 4.11 µM; in [3], 3.41 µM; in assay [4] it was 1.58 µM; in [5], 3.7 µM; in assay [6] it was 3.06 µM. In addition, the TGI in assay [7] was determined as 2.38 µM; in [8] it was 3.01 µM; in [9], 2.72 µM; in [10], 3.29 µM.
With `CCc1nc(N)nc(N)c1-c1ccc(Cl)c(N=CN(C)C)c1`, the TGI was above 100 µM in assay [1]; above 90.3 µM in assay [2]; above 100 µM in assay [3]; above 95.2 µM in [4]; above 100 µM in assay [5]; above 100 µM in [6]. For the same compound, the TGI in [7], in assay [8], in assay [9] and in assay [10] was above 100 µM each time.
For `O=C1OC(c2ccccc2)=N/C1=C\c1cccc(F)c1`, the TGI in [1] was above 100 µM; in assay [2], 61.2 µM; in assay [3], above 100 µM; in assay [4], above 100 µM; in [5], 69.9 µM; in assay [6] it was above 100 µM. Also, the TGI in assay [7], in [8], in assay [9] and in assay [10] was above 100 µM throughout.
`Cc1nc(Nc2nc3ccccc3o2)nc(-c2cccc([N+](=O)[O-])c2)c1C(=O)Nc1ccc(F)c(Cl)c1`: the GI50 in [1] is 3.18 µM; in [2], 2.15 µM; in assay [3], 1.39 µM; in [4] it was 1.43 µM; in [5], 2.33 µM; in assay [6], 0.797 µM. The GI50 in assay [7] is 2.83 µM; in assay [8], 3.3 µM; in assay [9], 2.27 µM; in assay [10], 1.87 µM. The TGI is above 100 µM in assay [1]; 5.29 µM in assay [2]; 4.66 µM in [3]; 17.7 µM in [4]; 10.5 µM in assay [5]; 11.5 µM in [6]. Moreover, the TGI was above 100 µM in assay [7], above 100 µM in assay [8], 9.62 µM in assay [9] and 7.09 µM in [10].
